Data reported in patent US20250145631A1, “HETEROCYCLIC COMPOUND ACTING ON G12D MUTANT KRAS PROTEIN” (Astellas Pharma Inc., priority 2022, published 2025).
Where a name gives a salt, the structure may show the parent alone.

What was measured:
Type in all cases: cell-based
[1] = system: human G12D mutant KRAS-positive pancreatic cancer line AsPC-1; experiment: Non-anchorage-dependent cell growth inhibitory effect, spheroid 3D culture (Test Example 3); details: ASPC1, 144 h, AsPC-1 spheroid 3D culture, 6 days, CellTiter Glo 2.0, read-out: IC50 (non-anchorage-dependent cell growth inhibition)
Procedure: The non-anchorage-dependent cell growth inhibitory effect of test compounds was evaluated by spheroid 3D cell culture.
AsPC-1 cells were seeded on low-cell-adhesive round bottom 384-well plates (PrimeSurface: from Sumitomo Bakelite) at 20 μL (or […])/well to give 5×10^2 cells per well. As for the cell culture conditions, RPMI 1640 medium containing 10% fetal bovine serum was used in the presence of 5% CO2 at 37° C.
The next day, the test compounds (10 points or 6 points having final concentrations in the range of 10 μM to 0.3 nM) and DMSO, which was the solvent for the test compounds, as a negative control were diluted 500-fold (or 100-fold) with a fresh medium and were added at 20 μL (or […]) per well. After culturing in the presence of 5% C02 at 37° C. for 6 days, CellTiter Glo 2.0 (from Promega) was added at 20 μL per well. After stirring with a plate mixer (from FINEPCR) at normal temperature for 1 hour, the luminescent signals were measured with ARVO X3 (from PerkinElmer).
(§1) With the signaling value in treatment with DMSO taken as 100% and with the signaling value in the medium alone without cells taken as 0%, the 50% inhibitory concentration values (IC50) were calculated by Sigmoid-Emax nonlinear regression analysis. The calculated 50% inhibition represents the inhibition at the highest concentration evaluated (10 μM) for a compound that exceeds the concentration in the evaluation range.
(§2) In the tables presented below, Ex represents Example No. The IC50 of Ex. 13, Ex. 15, and Ex. 16 were calculated using the molecular weights as tetrahydrochloride, and the IC50 of Ex. 14 was calculated using the molecular weight as trihydrochloride.

[2] = system: phosphorylation of ERK (Thr202/Tyr204); experiment: ERK phosphorylation inhibitory effect by Cell ELISA in AsPC-1 cells (Test Example 2); details: Homo sapiens, ASPC1, overnight treatment, Cell ELISA, read-out: IC50 (ERK phosphorylation inhibition)
Procedure: The ERK phosphorylation inhibitory effect of test compounds was evaluated by measuring phosphorylation of threonine 202 (Thr202) and tyrosine 204 (Tyr204) of ERK located downstream of the KRAS signal by Cell ELISA.
AsPC-1 cells were seeded on 384-well plates at 20 µL/well to give 2.0×10^4 cells per well. As for the cell culture conditions, RPMI 1640 medium containing 10% fetal bovine serum was used in the presence of 5% CO2 at 37° C.
The next day, the test compounds (10 points having final concentrations in the range of 10 μM to 0.3 nM), trametinib (MEK inhibitor) of a final concentration of […] as positive control and DMSO, which was the solvent for the test compounds, as negative control were diluted 500-fold with a fresh medium and were added at 20 μL per well. The cells were cultured overnight. After culturing, 30% glyoxal solution (40% glyoxal [from Nacalai Tesque]was diluted with PBS) was quickly added at 30 μL per well, and the plates were allowed to stand for 120 minutes at room temperature to thus immobilize the cells. Then, the plates were centrifuged to remove the supernatant (using a centrifugal dehydrator machine, the supernatant was removed by the same method hereinafter), and 0.10% Triton X-100-containing PBS was added at 20 μL per well. After allowing to stand for 10 minutes at room temperature, the supernatant was removed, and the same operation was further repeated. Next, 0.5% SDS-containing PBS was added at 20 μL per well, and after allowing to stand at room temperature for 30 minutes, the supernatant was removed. Subsequently, blocking solution (Intercept Blocking Buffer) was added at 20 μL per well, and the plates were allowed to stand for 1 hour at room temperature. The supernatant was removed, and an ERK (Thr202/Tyr204) phosphorylation antibody (Phospho-p44/42 MAPK (Erk 1/2) (Thr202/Tyr204) (D13.14.4E) XP Rabbit mAb; from Cell Signaling Technology) diluted 2,500-fold with blocking solution was added at 15 μL per well as a primary antibody. The plates were allowed to stand at 4° C. overnight.
The next day, the supernatant was removed. 0.05% Tween-20 (from Thermo Fisher Scientific)-containing PBS was added at 50 μL per well, and the supernatant was removed to thus wash each well. The washing was performed three times in total. After washing, Goat anti-Rabbit IgG H&L (IRDye 800CW) diluted 1,000-fold with blocking solution was added at 15 μL per well as a secondary antibody, and the plates were allowed to stand for 1 hour at room temperature. The supernatant was removed, and each well was washed three times with 0.05% Tween-20-containing PBS in the same manner as after the primary antibody reaction. After removing the supernatant, the plates were dried with air at room temperature for 3 hours or more, and the 800-nm fluorescent signals were measured with Aerius.
as §1, with “value at the time of addition of” for “value in treatment with”, “value at” for “value in”, “the time of addition of […] trametinib” for “the medium alone without cells”
as §2

[3] = molecular target: T1, KRAS G12D (Homo sapiens, UniProt P01116, G12D); experiment: KRAS degradation activity by Cell ELISA in AsPC-1 cells (Test Example 1); details: for Dmax: ASPC1, overnight treatment, read-out: Dmax (degradation rate at the concentration showing highest degradation); for Dmax / DC50: Cell ELISA; for DC50: overnight treatment, read-out: DC50 (50% degradation concentration of KRAS)
T1 construct: host or cells: AsPC-1 (human pancreatic cancer line)
Procedure: The KRAS degradation activity of test compounds was evaluated by measuring the expression levels of KRAS G12D by Cell ELISA.
AsPC-1 cells were seeded at 20 μL per well on 384-well plates (from Greiner bio-one) to give 2.0×10^4 cells per well. As for the cell culture conditions, RPMI 1640 (from Sigma-Aldrich) medium containing 10% fetal bovine serum (from Cytiva) was used in the presence of 5% CO2 at 37° C.
The next day, the test compounds (10 points having final concentrations in the range of 10 μM to 0.3 nM) and DMSO (from FUJIFILM Wako Pure Chemical Corporation), which was the solvent for the test compounds, as a negative control were diluted 500-fold with a fresh medium and were added at 20 μL per well. The cells were cultured overnight. The next day, the culture supernatant was removed, and 4% paraformaldehyde phosphate buffer (from FUJIFILM Wako Pure Chemical Corporation) was added at 20 μL per well. The plates were allowed to stand for 30 minutes at room temperature to thus immobilize the cells. Then, the supernatant was removed, and 0.1% Triton X-100 (from Amersham Biosciences)-containing Phosphate buffered saline (PBS; from FUJIFILM Wako Pure Chemical Corporation) was added at 20 μL per well. After allowing to stand for 10 minutes at room temperature, the supernatant was removed. PBS was added at 25 μL per well, and the supernatant was removed to thus wash each well. The washing was performed twice in total. Next, the supernatant was removed, and 0.5% sodium dodecyl sulfate (SDS; from Invitrogen)-containing PBS was added at 20 μL per well. After allowing to stand at room temperature for 10 minutes, the supernatant was removed by a centrifugal operation (using a centrifugal dehydrator machine, the supernatant was removed by the same method hereinafter). PBS was added at 25 μL per well, and the supernatant was removed to thus wash each well. The washing was performed twice in total. The supernatant was removed, and blocking solution (Intercept Blocking Buffer; from Li—COR Biosciences) was added at 20 μL per well. After allowing to stand for 30 minutes at room temperature, the supernatant was removed, and a solution obtained by diluting anti-β-actin antibody (Anti-beta Actin antibody [mAbcam 8226]-Loading Control; from abcam) 1,000-fold with blocking solution and a solution obtained by diluting anti-Ras (G12D Mutant Specific) antibody (Ras (G12D Mutant Specific) (D8H7) Rabbit mAb #14429; from Cell Signaling Technology) and anti-β-actin antibody (from abcam) 1,000-fold with blocking solution were respectively added to positive control wells and the other wells at 15 μL per well as a primary antibody. The plates were allowed to stand overnight at 4° C.
The next day, the supernatant was removed. PBS was added at 25 μL per well, and the supernatant was removed to thus wash each well. The washing was performed twice in total. The supernatant was removed, and a solution obtained by diluting Donkey anti-Mouse IgG H&L (IRDye 680RD) (from Li—COR Biosciences) and Goat anti-Rabbit IgG H&L (IRDye 800CW) (from Li—COR Biosciences) 1,000-fold with blocking solution was added at 15 μL per well as a secondary antibody. A solution obtained by diluting Donkey anti-Mouse IgG H&L (IRDye 680RD) (from Li—COR Biosciences) 1,000-fold with blocking solution was added to a positive control well as a secondary antibody. After allowing to stand for 1 hour at room temperature, the supernatant was removed. PBS was added at […], and the supernatant was removed to thus wash each well. The washing was performed twice in total. After removing the supernatant, the plates were dried with air at room temperature for 2 hours or more, and the 700 nm and 800 nm fluorescent signals were measured with Aerius (from Li—COR Biosciences). […]

T1 sequence (P01116 1-188 isoform P01116-2 G12D): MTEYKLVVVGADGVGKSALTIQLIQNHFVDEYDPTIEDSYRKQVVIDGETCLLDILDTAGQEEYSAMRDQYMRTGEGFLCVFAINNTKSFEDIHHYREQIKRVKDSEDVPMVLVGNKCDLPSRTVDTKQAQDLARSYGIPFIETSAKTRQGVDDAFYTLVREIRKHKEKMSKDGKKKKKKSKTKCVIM

Row | IC50 [1] [nM] | IC50 [2] [nM] | Dmax [3] [%] | DC50 [3] [nM] | degradation rate at the highest concentration evaluated (printed in DC50 column) ([3]; at 10 μM) [% at 10 μM] | Structure (SMILES)
1 | 1090 | 1560 | 61 | 2810 | – | Cc1c(F)cc2[nH]ncc2c1-c1c(C2CC2)cc2c(N3C[C@@H]4C[C@H]3CN4)nc(OC3CCOCC3)nc2c1OCc1ccc(C(=O)N2CCN(Cc3cccc4c(N5CCC(=O)NC5=O)nn(C)c34)CC2)cc1 (atropisomer, axis not shown) [Example 23]
2 | 223 | 231 | 78 | 297 | – | Cc1c(F)cc2[nH]ncc2c1-c1c(C2CC2)cc2c(N3C[C@@H]4C[C@H]3CN4)nc(OC3CCOCC3)nc2c1OCc1ccc(C(=O)N2CCN(Cc3ccc4c(N5CCC(=O)NC5=O)nn(C)c4n3)C[C@@H]2C)cc1 (atropisomer, axis not shown) [Example 24]
3 | 460 | 668 | 70 | 856 | – | CC[C@H]1CN(Cc2ccc3c(N4CCC(=O)NC4=O)nn(C)c3c2)CCN1C(=O)c1ccc(COc2c(-c3c(C)c(F)cc4[nH]ncc34)c(C3CC3)cc3c(N4C[C@@H]5C[C@H]4CN5)nc(OC4CCOCC4)nc23)cc1 (atropisomer, axis not shown) [Example 25]
4 | 1350 | 2020 | 67 | 5220 | – | Cc1c(F)cc2[nH]ncc2c1-c1c(C2CC2)cc2c(N3C[C@@H]4C[C@H]3CN4)nc(OC3CCOCC3)nc2c1OCc1ccc(C(=O)N2CCN(Cc3ccc(CN4CCC(=O)NC4=O)cc3F)C[C@@H]2C)cc1 (atropisomer, axis not shown) [Example 26]
5 | 1890 | 2770 | 25 | – | 25 | Cc1c(F)cc2[nH]ncc2c1-c1c(C2CC2)cc2c(N3C[C@@H]4C[C@H]3CN4)nc(OC3CCOCC3)nc2c1OCc1ccc(C(=O)N2CCN(Cc3ccc4c(c3)c(N3CCC(=O)NC3=O)nn4C)C[C@@H]2C)cc1 (atropisomer, axis not shown) [Example 27]
6 | 2020 | 2190 | 54 | 5530 | – | Cc1c(F)cc2[nH]ncc2c1-c1c(C2CC2)cc2c(N3C[C@@H]4C[C@H]3CN4)nc(OC3CCOCC3)nc2c1OCc1ccc(C(=O)N2CCN(CCOc3cccc(N4CCC(=O)NC4=O)c3)CC2)cc1 (atropisomer, axis not shown) [Example 28]
7 | 60 | 69 | 78 | 46 | – | Cc1c(F)cc2[nH]ncc2c1-c1c(C2CC2)cc2c(O[C@H]3CCNC3)cc(OC[C@H]3CCCO3)nc2c1OCc1ccc(C(=O)N2CCN(Cc3ccc4c(c3)n(C)c(=O)n4C3CCC(=O)NC3=O)C[C@@H]2C)cc1 (atropisomer, axis not shown) [Example 32]
8 | 399 | 365 | 89 | 294 | – | Cc1c(F)cc2[nH]ncc2c1-c1c(C2CC2)cc2c(N3C[C@@H]4C[C@H]3CN4)nc(OC3CCOCC3)nc2c1OCc1ccc(C(=O)N2CCN(CCc3ccc4c(c3)c(N3CCC(=O)NC3=O)nn4C)C[C@@H]2C)cc1 (atropisomer, axis not shown) [Example 42]
9 | 73 | 158 | 86 | 71 | – | Cc1c(F)cc2[nH]ncc2c1-c1c(C2CC2)cc2c(N3C[C@@H]4C[C@H]3CN4)nc(OC3CCOCC3)nc2c1OCc1ccc(C(=O)N2CCN(Cc3ccc4c(N5CCC(=O)NC5=O)nn(C)c4c3)C[C@@H]2C)cc1 (atropisomer, axis not shown; (M)) [Example 16, 1-(6-{[(3S)-4-{4-[({(7M)-6-cyclopropyl-4-[(1S,4S)-2,5-diazabicyclo[2.2.1]heptan-2-yl]-7-(6-fluoro-5-methyl-1H-indazol-4-yl)-2-[(oxan-4-yl)oxy]quinazolin-8-yl}oxy)methyl]benzoyl}-3-methylpiperazin-1-yl]methyl}-1-methyl-1H-indazol-3-yl)-1,3-diazinane-2,4-dione n hydrochloride]
